# Measurements reported in patent publication US20260199492A1, “PSD-95 DOMAIN INHIBITOR, AND PREPARATION METHOD THEREFOR AND USE THEREOF” (SHENZHEN SALUBRIS PHARMACEUTICALS CO., LTD, priority 2023, published 2026).
# Square brackets hold non-standard residues; d marks the D form. Peptide text beside a SMILES is read from it. Arg(Me) = CNC(=N)NCCC[C@H](N)C(=O)O
# Assays:
# [1] = target: PDZ1-2 of PSD95 (Homo sapiens, UniProt P78352); test: Fluorescence polarization competition binding assay of PDZ1-2 with probe 5-FAM-NA-1
# [2] = In vitro plasma stability experiment (compounds), without or with tPA; conditions: human, 37° C., initial concentration 10 μM
# Experimental: (§1) • Plasma: Human plasma is commercially available. • Reagents: DMSO (dimethyl sulfoxide), disodium hydrogen phosphate, sodium dihydrogen phosphate, methanol, formic acid, and propranolol (internal standard) are commercially available. • Instrument: AB SCIEX QTRAP 5500+.
# (§2) 5 μL of stock solution (10 mM) was diluted with 495 μL of 0.05 M sodium phosphate buffer to 100 μM of dosing solution. The final concentration of tested drug for incubation was 10 μM.
# (§3) A certain volume (e.g., 27 μL or 24 μL) of plasma was added into a 96-well plate. An appropriate volume of the internal standard working solution (e.g., 150 μL) was immediately added to precipitate. […] This was performed in duplicate.
# (§4) Then, an appropriate amount of plasma (e.g., 27 μL or 24 μL) was added at the designed time points (e.g., 5 min, 15 min, 30 min, 60 min, and 120 min, etc.), and the parallel replicate wells were performed at each time point. […] The reaction was terminated by adding an appropriate amount of internal standard working solution (e.g., 150 μL) at the end of the time, and the mixture was mixed thoroughly.
# (§5) The mixture was centrifuged at 4000 rpm for 15 min. A certain amount of the supernatant was taken, mixed with a certain amount of water, and then subjected to LC/MS/MS analysis. LC-MS detection conditions were as follows: • Chromatography column: YMC Triart C18, 50*3.0 mm, 2.1 μm. • Mobile phase: Gradient elution was performed using water (0.1% formic acid)-acetonitrile according to the table below.
# (§6) The relative content of drug at each time point was calculated using the initial 0 point as 100%. The half-life of the drug was calculated by plotting “relative drug content” against “incubation time” using GraphPad Prism 5 software.
# [3] = in vitro; conditions: human, plasma
# Experimental: as §1, §2, §3, §4, §5, §6
# [4] = Toxicological experiment: serum UREA and CREA after 5 days of i.v. dosing; format: in vivo, SD rats
# Experimental: The compounds of Examples 1-8 were accurately weighed into suitable EP tubes, and the vehicle (saline) was added to formulate a solution of a concentration of 15 mg/mL. The solution was filtered using a 0.2 μm filter for future use.
# A total of 18 male SD rats of 6-7 weeks of age were used for test. After the animal quarantine and acclimatization period, the animals were randomly divided into 6 groups according to their body weights measured before grouping, vehicle control group (saline) as well as example compounds groups, 3 animals/group. Using the above prepared solution, the animal was administered intravenously via the tail vein at a dosage of 30 mg/kg and a dosing volume of 2 mL/kg. The dosing volume for each animal was calculated according to the body weight. Administration was performed once daily for 5 consecutive days. After 2 h of administration on day 5, the animals were deeply anesthetized by intraperitoneal injection of sodium pentobarbital. The thoracic cavity was opened, and blood was collected from the abdominal aorta into blood collection tubes containing inert separation gel and coagulant. The serum was collected by centrifugation (4000 rpm, 10 min) after about 1 h of resting. The concentrations of UREA and CREA in the serum were detected using a biochemical analyzer. The percentage change of each example compound relative to the vehicle control group was calculated using the formula: %=(Concentration of example compound−Concentration of vehicle control group)/Concentration of vehicle control group.
# [5] = In vitro stability experiment of cell-penetrating peptides in human plasma
# Experimental: as §2, §3, §4, §5, §6
# [6] = With tPA T1/2, human plasma, with rt-PA […]
# [7] = Without tPA T1/2, human plasma, without tPA
# [8] = male SD rats, 30 mg/kg i.v. once daily for 5 days, serum 2 h after dosing on day 5
# [9] = plasma, Without tPA T1/2, cell-penetrating peptide, human plasma, initial concentration 10 μM, without tPA
# [10] = plasma, With tPA T1/2, cell-penetrating peptide, human plasma, initial concentration 10 μM, with tPA
# Chain of PDZ1-2 of PSD95 (P78352 61-249 limits assumed): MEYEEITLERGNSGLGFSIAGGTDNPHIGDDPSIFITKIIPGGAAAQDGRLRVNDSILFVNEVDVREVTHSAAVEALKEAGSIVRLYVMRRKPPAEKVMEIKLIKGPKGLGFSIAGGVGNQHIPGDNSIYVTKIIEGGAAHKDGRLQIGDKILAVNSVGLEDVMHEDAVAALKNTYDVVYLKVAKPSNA
structure (smiles),measurement,setting,value
CC[C@H](C)[C@H](NC(=O)[C@H](CO)NC(=O)[C@H](CO)NC(=O)[C@H](CC(C)C)NC(=O)[C@@H](CCCCN)NC(=O)[C@H](CCCNC(=N)N)NC(=O)[C@H](CCCNC(=N)N)NC(=O)[C@H](CCCNC(=N)NC)NC(=O)[C@H](CCC(N)=O)NC(=O)[C@@H](CCCNC(=N)N)NC(=O)[C@H](CCCNC(=N)N)NC(=O)[C@H](CCCCN)NC(=O)[C@H](CCCCN)NC(=O)[C@](C)(CCCNC(=N)N)NC(=O)CNC(=O)[C@@H](N)Cc1ccc(O)cc1)C(=O)N[C@@H](CCC(=O)O)C(=O)N[C@@H](CO)C(=O)N[C@@H](CC(=O)O)C(=O)N[C@H](C(=O)O)C(C)C (relative stereo) [Compound I13],IC50,[1],6.33 µM
same,half-life at 10 μM,[2]; [6],14.5 h
same,half-life at 10 μM,[2]; [7],10.7 h
CC[C@H](C)[C@H](NC(=O)[C@H](CO)NC(=O)[C@H](CO)NC(=O)[C@H](CC(C)C)NC(=O)[C@@H](CCCCN)NC(=O)[C@H](CCCNC(=N)N)NC(=O)[C@H](CCCNC(=N)N)NC(=O)[C@H](CCCNC(=N)NC)NC(=O)[C@H](CCC(=O)O)NC(=O)[C@@H](CCCNC(=N)N)NC(=O)[C@H](CCCNC(=N)N)NC(=O)[C@H](CCCCN)NC(=O)[C@H](CCCCN)NC(=O)[C@](C)(CCCNC(=N)N)NC(=O)CNC(=O)[C@@H](N)Cc1ccc(O)cc1)C(=O)N[C@@H](CCC(=O)O)C(=O)N[C@@H](CO)C(=O)N[C@@H](CC(=O)O)C(=O)N[C@H](C(=O)O)C(C)C (relative stereo) [Compound I15],IC50,[1],7.89 µM
same,half-life,[3]; With tPA T1/2,27.2 h
same,half-life,[3]; Without tPA T1/2,> 33.3 h
CC[C@H](C)[C@H](NC(=O)CCOCCOCCN(CCOCCOCCC(=O)N[C@H](C(=O)N[C@@H](CCC(=O)O)C(=O)N[C@H](C(=O)N[C@@H](CC(=O)O)C(=O)N[C@H](C(=O)O)C(C)C)[C@@H](C)O)[C@@H](C)CC)C(=O)[C@H](CCCNC(=N)N)NC(=O)[C@H](CCCNC(=N)N)NC(=O)[C@@H](CCCNC(=N)N)NC(=O)[C@H](CCC(N)=O)NC(=O)[C@@H](CCCNC(=N)N)NC(=O)[C@H](CCCNC(=N)N)NC(=O)[C@H](CCCCN)NC(=O)[C@H](CCCCN)NC(=O)[C@@H](CCCNC(=N)N)NC(=O)CNC(=O)[C@@H](N)Cc1ccc(O)cc1)C(=O)N[C@@H](CCC(=O)O)C(=O)N[C@H](C(=O)N[C@@H](CC(=O)O)C(=O)N[C@H](C(=O)O)C(C)C)[C@@H](C)O [Compound 43],half-life,"[3]; With tPA T1/2, human plasma, 37° C., initial concentration 10 μM, with rt-PA […]",20.5 h
same,half-life,"[3]; Without tPA T1/2, human plasma, 37° C., initial concentration 10 μM, without tPA",> 33.3 h
CC[C@H](C)[C@H](NC(=O)CCOCCOCCN(CCOCCOCCC(=O)N[C@H](C(=O)N[C@@H](CCC(=O)O)C(=O)N[C@H](C(=O)N[C@@H](CC(=O)O)C(=O)N[C@H](C(=O)O)C(C)C)[C@@H](C)O)[C@@H](C)CC)C(=O)[C@H](CCCNC(=N)N)NC(=O)[C@H](CCCNC(=N)N)NC(=O)[C@@H](CCCNC(=N)N)NC(=O)[C@H](CCC(=O)O)NC(=O)[C@@H](CCCNC(=N)N)NC(=O)[C@H](CCCNC(=N)N)NC(=O)[C@H](CCCCN)NC(=O)[C@H](CCCCN)NC(=O)[C@@H](CCCNC(=N)N)NC(=O)CNC(=O)[C@@H](N)Cc1ccc(O)cc1)C(=O)N[C@@H](CCC(=O)O)C(=O)N[C@H](C(=O)N[C@@H](CC(=O)O)C(=O)N[C@H](C(=O)O)C(C)C)[C@@H](C)O [Compound 65],"CREA, percentage change compared to vehicle control group",[4]; [8],−3.3%
same,"UREA, percentage change compared to vehicle control group",[4]; [8],23.7%
same,half-life at 10 μM,[2]; [6],10.5 h
same,half-life at 10 μM,[2]; [7],> 33.3 h
CC[C@H](C)[C@H](NC(=O)[C@H](CO)NC(=O)[C@H](CO)NC(=O)[C@H](CC(C)C)NC(=O)[C@@H](CCCCN)NC(=O)[C@H](CCCNC(=N)N)NC(=O)[C@H](CCCNC(=N)N)NC(=O)[C@H](CCCNC(=N)NC)NC(=O)[C@H](CCC(=O)O)NC(=O)[C@@H](CCCNC(=N)N)NC(=O)[C@H](CCCNC(=N)N)NC(=O)[C@H](CCCCN)NC(=O)[C@H](CCCCN)NC(=O)[C@@H](CCCNC(=N)N)NC(=O)CNC(=O)[C@@H](N)Cc1ccc(O)cc1)C(=O)N[C@@H](CCC(=O)O)C(=O)N[C@@H](CO)C(=O)N[C@@H](CC(=O)O)C(=O)N[C@H](C(=O)O)C(C)C [Compound I1] (H-YG[dR]KKR[dR]E[Arg(Me)]RR[dK]LSSIESDV-OH),half-life,[3]; With tPA T1/2,9.18 h
same,half-life,[3]; Without tPA T1/2,18.6 h
"CC[C@H](C)[C@H](NC(=O)[C@H](CO)NC(=O)[C@H](CO)NC(=O)[C@H](CC(C)C)NC(=O)[C@@H](CCCCN)NC(=O)[C@H](CCCNC(=N)N)NC(=O)[C@H](CCCNC(=N)N)NC(=O)[C@@H](CCCNC(=N)N)NC(=O)[C@H](CCC(N)=O)NC(=O)[C@@H](CCCNC(=N)N)NC(=O)[C@H](CCCNC(=N)N)NC(=O)[C@H](CCCCN)NC(=O)[C@H](CCCCN)NC(=O)[C@@H](CCCNC(=N)N)NC(=O)CNC(=O)[C@@H](N)Cc1ccc(O)cc1)C(=O)N[C@@H](CCC(=O)O)C(=O)N[C@@H](CO)C(=O)N[C@@H](CC(=O)O)C(=O)N[C@H](C(=O)O)C(C)C [NoNo-42, reference compound] (H-YG[dR]KKR[dR]Q[dR]RR[dK]LSSIESDV-OH; N-terminus and C-terminus assumed)",IC50,[1],9.71 µM
same,"CREA, percentage change compared to vehicle control group","[4]; rat, in vivo, iv, 30 mg/kg",308.8%
same,"UREA, percentage change compared to vehicle control group","[4]; rat, in vivo, iv, 30 mg/kg",237.9%
same,half-life at 10 μM,[3],6.88 h
"N=C(N)NCCC[C@H](NC(=O)[C@H](CCCNC(=N)N)NC(=O)[C@H](CCCNC(=N)N)NC(=O)[C@H](CCC(N)=O)NC(=O)[C@H](CCCNC(=N)N)NC(=O)[C@H](CCCNC(=N)N)NC(=O)[C@H](CCCCN)NC(=O)[C@H](CCCCN)NC(=O)[C@H](CCCNC(=N)N)NC(=O)CNC(=O)[C@@H](N)Cc1ccc(O)cc1)C(=O)O [TAT-1, reference compound]",half-life at 10 μM,[5]; [9],1.52 h
N=C(N)NCCC[C@H](NC(=O)[C@@H](CCCNC(=N)N)NC(=O)[C@H](CCC(N)=O)NC(=O)[C@@H](CCCNC(=N)N)NC(=O)[C@H](CCCNC(=N)N)NC(=O)[C@H](CCCCN)NC(=O)[C@H](CCCCN)NC(=O)[C@@H](CCCNC(=N)N)NC(=O)CNC(=O)[C@@H](N)Cc1ccc(O)cc1)C(=O)O [TAT-3] (H-YG[dR]KKR[dR]Q[dR]R-OH),half-life at 10 μM,[5]; plasma,21.7 h
same,half-life at 10 μM,[5]; plasma with added rt-PA,27.5 h
N=C(N)NCCC[C@H](NC(=O)[C@H](CCCNC(=N)N)NC(=O)[C@@H](CCCNC(=N)N)NC(=O)[C@H](CCC(=O)O)NC(=O)[C@@H](CCCNC(=N)N)NC(=O)[C@H](CCCNC(=N)N)NC(=O)[C@H](CCCCN)NC(=O)[C@H](CCCCN)NC(=O)[C@@H](CCCNC(=N)N)NC(=O)CNC(=O)[C@@H](N)Cc1ccc(O)cc1)C(=O)O [TAT-4],half-life at 10 μM,[5]; [10],14.9 h
same,half-life at 10 μM,[5]; [9],11.9 h
CNC(=N)NCCC[C@H](NC(=O)[C@H](CCC(N)=O)NC(=O)[C@@H](CCCNC(=N)N)NC(=O)[C@H](CCCNC(=N)N)NC(=O)[C@H](CCCCN)NC(=O)[C@H](CCCCN)NC(=O)[C@@H](CCCNC(=N)N)NC(=O)CNC(=O)[C@@H](N)Cc1ccc(O)cc1)C(=O)N[C@@H](CCCNC(=N)N)C(=O)N[C@@H](CCCNC(=N)N)C(=O)O [TAT-5],half-life at 10 μM,[5]; [10],12.3 h
same,half-life at 10 μM,[5]; [9],> 33.3 h
CNC(=N)NCCC[C@H](NC(=O)[C@H](CCC(=O)O)NC(=O)[C@@H](CCCNC(=N)N)NC(=O)[C@H](CCCNC(=N)N)NC(=O)[C@H](CCCCN)NC(=O)[C@H](CCCCN)NC(=O)[C@@H](CCCNC(=N)N)NC(=O)CNC(=O)[C@@H](N)Cc1ccc(O)cc1)C(=O)N[C@@H](CCCNC(=N)N)C(=O)N[C@@H](CCCNC(=N)N)C(=O)O [TAT-6],half-life at 10 μM,[5]; [10],4.3 h
same,half-life at 10 μM,[5]; [9],2.83 h
